From patent US11733243B2, “Use of acamprosate to modulate ERK1/2 activation in animal models for FXS and ASD and individuals diagnosed with FXS and ASD” (Indiana University Research and Technology Corporation, priority 2013, dated 2023)
“Also recorded” adds a separate entry of the source.

What was measured:
[1] = safety and adverse effects in the autistic disorder trial; format: in vivo, human; settings: idiopathic ASD, nine patients, range 600-1,998 mg/day
Method: A 12-week single-blind, placebo-controlled trial of the effect of acamprosate in the treatment of 12 youths with autistic disorder aged 5 to 17 years was carried out. In order to pilot test use of acamprosate in youth with autism targeting core social impairment, was conducted. All subjects and their family members were blinded to treatment status. All subjects participated in a 2 week placebo-lead-in phase prior to 10 weeks of treatment with acamprosate. For this project, enteric coated commercially available 333 mg acamprosate pills were over-encapsulated and identical matching placebo manufactured for the project. Placebo-responders, defined by a Clinical Global Impressions Improvement scale (CGI-I) score of 1 “very much improved” or 2 “much improved” (ratings anchored to core social deficits) at week 2 were asked to exit the study. During active treatment with acamprosate, dosing was increased in 333 mg increments per week over the first six weeks of active treatment to a maximum dose of 1,332 mg/day (weight<5 60 kg) or 1,998 mg/day (weight>60 kg). During the final four weeks of active drug treatment, subjects were maintained on a stable highest tolerated (optimal) dose. The primary outcome measure was the clinician-rated CGI-I anchored to symptoms of social impairment. […]

extracellular dopamine = settings: rats; dependent on glycine receptor activation; cited from earlier work

CC(=O)NCCCS(=O)(=O)O [Acamprosate, 3-Acetamidopropane-1-sulfonic acid]
tolerability [1]: well tolerated with no adverse effects leading to drug discontinuation or laboratory/vital sign abnormalities noted; also recorded: well tolerated with no adverse effects leading to drug discontinuation and no vital sign or safety laboratory changes noted
extracellular dopamine levels in the nucleus accumbens (extracellular dopamine): elevates extracellular dopamine levels in the nucleus accumbens
